The text below walks through data of patent US10781181B2, “N-((het) arylmethyl)-heteroaryl-carboxamides compounds as plasma kallikrein inhibitors” (Kalvista Pharmaceuticals Limited, priority 2014, dated 2020).

Format in all cases: biochemical
The target of one test is Human plasma kallikrein (Homo sapiens (Human), UniProt P03952). Nature of the test: Determination of the IC50 for plasma kallikrein. The note with it: read-out: IC50 (human PKal). The procedure:
Determination of the IC50 for Plasma Kallikrein
Human plasma kallikrein (Protogen) was incubated at 25° C. with the fluorogenic substrate H-DPro-Phe-Arg-AFC and various concentrations of the test compound. Residual enzyme activity (initial rate of reaction) was determined by measuring the change in […] at 410 nm and the IC50 value for the test compound was determined.

The next test has as its target Human KLK1 (Homo sapiens (Human), UniProt P06870). Nature of the test: Determination of the IC50 for KLK1. The note with it: human KLK1, 25° C., substrate H-DVal-Leu-Arg-AFC. The procedure: Determination of the IC50 for KLK1
Human KLK1 (Callbiochem) was incubated at 25° C. with the fluorogenic substrate H-DVal-Leu-Arg-AFC and various concentrations of the test compound. Residual enzyme activity (initial rate of reaction) was determined by measuring the change in […] at 410 nm and the IC50 value for the test compound was determined.

The target of a further test is Human FXIa (Homo sapiens (Human), UniProt P03951). Kind of test: Determination of the % inhibition for FXIa. To be noted: for inhibition at 40 µM: read-out: % Inhibition @ 40 μM (human FXIa). The procedure: Determination of the % Inhibition for FXIa
Sequence of Human FXIa (P03951 388-625 limits assumed): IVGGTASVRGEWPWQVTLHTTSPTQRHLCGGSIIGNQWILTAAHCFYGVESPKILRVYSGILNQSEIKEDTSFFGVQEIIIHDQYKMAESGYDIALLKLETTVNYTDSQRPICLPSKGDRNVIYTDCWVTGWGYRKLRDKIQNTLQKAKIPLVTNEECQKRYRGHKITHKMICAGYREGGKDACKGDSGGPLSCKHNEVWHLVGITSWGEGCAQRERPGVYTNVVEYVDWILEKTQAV
Sequence of Human FXIa (P03951 19-387 partner limits assumed): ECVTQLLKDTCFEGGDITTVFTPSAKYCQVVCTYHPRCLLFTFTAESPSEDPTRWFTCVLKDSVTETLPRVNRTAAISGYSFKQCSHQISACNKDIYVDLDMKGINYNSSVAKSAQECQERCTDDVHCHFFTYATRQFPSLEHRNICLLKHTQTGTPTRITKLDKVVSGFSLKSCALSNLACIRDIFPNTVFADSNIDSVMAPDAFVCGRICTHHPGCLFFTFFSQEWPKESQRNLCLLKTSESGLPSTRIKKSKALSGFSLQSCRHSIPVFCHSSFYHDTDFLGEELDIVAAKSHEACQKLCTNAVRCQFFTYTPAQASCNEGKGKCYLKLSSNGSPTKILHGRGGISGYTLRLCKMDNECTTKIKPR
Human FXIa (Enzyme Research Laboratories) was incubated at 25° C. with the fluorogenic substrate Z-Gly-Pro-Arg-AFC and 40 μM of the test compound. Residual enzyme activity (initial rate of reaction) was determined by measuring the change in […].

Where [1] appears, read: 40 μM of the test compound, human FXIa, 25° C.

Where two headings read alike, the source gives them in different places.

Sequence of Human plasma kallikrein (P03952 391-638): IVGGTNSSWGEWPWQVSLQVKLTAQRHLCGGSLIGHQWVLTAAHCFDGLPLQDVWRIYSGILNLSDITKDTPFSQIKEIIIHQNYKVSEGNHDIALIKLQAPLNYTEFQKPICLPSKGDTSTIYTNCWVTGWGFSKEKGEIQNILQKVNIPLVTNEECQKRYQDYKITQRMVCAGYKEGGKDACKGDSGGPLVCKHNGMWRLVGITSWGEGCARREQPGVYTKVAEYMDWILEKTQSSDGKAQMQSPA
Sequence of Human plasma kallikrein (P03952 20-390 partner): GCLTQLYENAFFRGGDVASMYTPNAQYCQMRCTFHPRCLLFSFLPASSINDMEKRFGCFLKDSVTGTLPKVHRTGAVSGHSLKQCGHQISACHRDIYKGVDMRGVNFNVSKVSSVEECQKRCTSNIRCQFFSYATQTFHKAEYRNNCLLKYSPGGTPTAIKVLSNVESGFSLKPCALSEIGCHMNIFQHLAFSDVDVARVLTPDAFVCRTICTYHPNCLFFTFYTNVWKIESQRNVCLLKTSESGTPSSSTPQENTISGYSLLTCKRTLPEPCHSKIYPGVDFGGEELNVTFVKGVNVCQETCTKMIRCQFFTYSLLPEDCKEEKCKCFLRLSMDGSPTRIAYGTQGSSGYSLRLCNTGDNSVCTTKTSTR
Sequence of Human KLK1 (P06870 25-262): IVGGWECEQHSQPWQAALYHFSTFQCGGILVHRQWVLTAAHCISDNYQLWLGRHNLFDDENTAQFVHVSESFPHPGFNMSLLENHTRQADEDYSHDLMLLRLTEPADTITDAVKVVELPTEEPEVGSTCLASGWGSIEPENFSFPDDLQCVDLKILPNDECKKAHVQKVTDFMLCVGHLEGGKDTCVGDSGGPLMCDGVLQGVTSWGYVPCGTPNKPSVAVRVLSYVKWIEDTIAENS

What is called IC50 is the concentration at which inhibition is half-maximal. On to `Cc1cc(C(=O)NCCOc2cccc(Cl)c2)c(C)n1Cc1csc(-c2ccccc2)n1` [Example 48, N-[2-(3-chlorophenoxy)ethyl]-2,5-dimethyl-1-[(2-phenyl-1,3-thiazol-4-yl)methyl]pyrrole-3-carboxamide], for which the results for the IC50 at Human plasma kallikrein and on Human KLK1 were 6.62 µM and greater than 10 µM, respectively. For the same compound, the “% Inhibition @ 40 μM (human FXIa)” value at Human FXIa (setting [1]) turned out to be 3%.
For orientation: inhibition means the drop in the measured response relative to a control, in per cent. As for `CN(C)c1nn(Cc2ccc(Cn3ccccc3=O)cc2)cc1C(=O)NCCOc1cccc(Cl)c1` [Example 35, N-[2-(3-chlorophenoxy)ethyl]-3-(dimethylamino)-1-({4-[(2-oxopyridin-1-yl)methyl]phenyl}methyl)pyrazole-4-carboxamide], the figures for the IC50 at Human plasma kallikrein and on Human KLK1 were 0.122 µM and greater than 40 µM, respectively. Moreover, the inhibition at 40 µM on Human FXIa (setting [1]) was 1%.
As to `Cc1ccc2cc(Cn3cc(C(=O)NCCOc4cccc(Cl)c4)c(N)n3)ccc2n1` [Example 54, 3-amino-N-[2-(3-chlorophenoxy)ethyl]-1-[(2-methylquinolin-6-yl)methyl]pyrazole-4-carboxamide], the figures for the IC50 on Human plasma kallikrein and on Human KLK1 were 0.245 µM and greater than 40 µM, respectively. Also, the inhibition at 40 µM at Human FXIa (setting [1]) is 67%.
Taken in the same sequence, the figures for `C[C@H](COc1cccc(Cl)c1)NC(=O)c1cn(Cc2ccc(Cn3ccccc3=O)cc2)nc1N` [Example 113, 3-amino-N-[(2R)-1-(3-chlorophenoxy)propan-2-yl]-1-({4-[(2-oxopyridin-1-yl)methyl]phenyl}methyl)pyrazole-4-carboxamide] were 0.316 µM, greater than 40 µM and 3%.
As to `CNc1nn(Cc2ccc(Cn3ccccc3=O)cc2)cc1C(=O)NCCOc1cccc(Cl)c1` [Example 37, N-[2-(3-Chlorophenoxy)ethyl]-3-(methylamino)-1-({4-[(2-oxopyridin-1-yl)methyl]phenyl}methyl)pyrazole-4-carboxamide], the IC50 was 0.0185 µM at Human plasma kallikrein and greater than 40 µM at Human KLK1. Further, the inhibition at 40 µM on Human FXIa (setting [1]) came to 8%.
Take `Nc1nn(Cc2ccc(-n3ccccc3=O)cc2)cc1C(=O)NCCOc1cccc(Cl)c1` [Example 52, 3-amino-N-[2-(3-chlorophenoxy)ethyl]-1-{[4-(2-oxopyridin-1-yl)phenyl]methyl}pyrazole-4-carboxamide]: the IC50 at Human plasma kallikrein was 0.335 µM; against Human KLK1, greater than 40 µM. The inhibition at 40 µM at Human FXIa (setting [1]) came to 0%.
Turning to `COCc1nn(Cc2ccc(Cn3ccccc3=O)cc2)cc1C(=O)NCCOc1cccc(Cl)c1` [Example 8, N-[2-(3-chlorophenoxy)ethyl]-3-(methoxymethyl)-1-({4-[(2-oxopyridin-1-yl)methyl]phenyl}methyl)pyrazole-4-carboxamide], the IC50 is 0.0166 µM on Human plasma kallikrein and greater than 10 µM against Human KLK1. The inhibition at 40 µM on Human FXIa (setting [1]) is 0%.
Regarding `Nc1nn(Cc2ccc3[nH]ncc3c2)cc1C(=O)NCCOc1cccc(Cl)c1` [Example 92, 3-amino-N-[2-(3-chlorophenoxy)ethyl]-1-(1H-indazol-5-ylmethyl)pyrazole-4-carboxamide], the IC50 on Human plasma kallikrein and on Human KLK1 was greater than 10 µM throughout. Also, at Human FXIa (setting [1]), the inhibition at 40 µM was found to be 2%.
Regarding `Nc1nn(Cc2ccc(C(=O)N3CCCC3)cc2)cc1C(=O)NCCOc1cccc(Cl)c1` [Example 51, 3-amino-N-[2-(3-chlorophenoxy)ethyl]-1-({4-[(pyrrolidin-1-yl)carbonyl]phenyl}methyl)pyrazole-4-carboxamide], the figures for the IC50 on Human plasma kallikrein and against Human KLK1 were 0.427 µM and greater than 40 µM, respectively. For the same compound, the inhibition at 40 µM at Human FXIa (setting [1]) is 51%.
On the same counts, the results for `Nc1nn(Cc2cccc(N3CCCC3)n2)cc1C(=O)NCCOc1cccc(Cl)c1` [Example 53, 3-amino-N-[2-(3-chlorophenoxy)ethyl]-1-{[6-(pyrrolidin-1-yl)pyridin-2-yl]methyl}pyrazole-4-carboxamide] are 4.73 µM, greater than 40 µM and 0%.
For `Nc1nn(Cc2ccc(C(=O)O)cc2)cc1C(=O)NCCOc1cccc(Cl)c1` [Example 69, 4-[(3-amino-4-{[2-(3-chlorophenoxy)ethyl]carbamoyl}pyrazol-1-yl)methyl]benzoic acid], the IC50 at Human plasma kallikrein is greater than 10 µM; at Human KLK1, greater than 40 µM. In addition, at Human FXIa, the inhibition at 40 µM came out at 0%.
Consider `CN(C(=O)CNC(=O)c1cn(Cc2ccc(Cn3ccccc3=O)cc2)nc1N)c1cccc(Cl)c1` [Example 40, 2-{[3-amino-1-({4-[(2-oxopyridin-1-yl)methyl]phenyl}methyl)pyrazol-4-yl]formamido}-N-(3-chlorophenyl)-N-methylacetamide], for which the IC50 at Human plasma kallikrein is 0.0126 µM; at Human KLK1 it was greater than 40 µM. For the same compound, the inhibition at 40 µM on Human FXIa (setting [1]) was determined as 0%.
As to `Nc1nn(Cc2ccc(-n3cccn3)nc2)cc1C(=O)NCCOc1cccc(Cl)c1` [Example 88, 3-amino-N-[2-(3-chlorophenoxy)ethyl]-1-{[6-(pyrazol-1-yl)pyridin-3-yl]methyl}pyrazole-4-carboxamide], the IC50 at Human plasma kallikrein was 9.18 µM; at Human KLK1, greater than 40 µM. The inhibition at 40 µM at Human FXIa (setting [1]) came to 0%.
In the case of `Nc1nn(Cc2ccnc(-n3cccn3)c2)cc1C(=O)NCCOc1cccc(Cl)c1` [Example 66, 3-amino-N-[2-(3-chlorophenoxy)ethyl]-1-{[2-(pyrazol-1-yl)pyridin-4-yl]methyl}pyrazole-4-carboxamide], the IC50 is 4.92 µM at Human plasma kallikrein and greater than 40 µM against Human KLK1. Besides, the inhibition at 40 µM at Human FXIa (setting [1]) was 0%.
Take `N#Cc1ccc(Cl)cc1OCCNC(=O)c1cn(Cc2ccc(Cn3ccccc3=O)cc2)nc1N` [Example 32, 3-amino-N-[2-(5-chloro-2-cyanophenoxy)ethyl]-1-({4-[(2-oxopyridin-1-yl)methyl]phenyl}methyl)pyrazole-4-carboxamide]: the half-inhibitory concentration (IC50) was 0.0101 µM on Human plasma kallikrein and greater than 40 µM at Human KLK1. For the same compound, the inhibition at 40 µM at Human FXIa (setting [1]) came out at 10%.
On the same counts, the results for `Cc1cnn(-c2ccc(Cn3cc(C(=O)NCCOc4cccc(Cl)c4)c(N)n3)cn2)c1` [Example 89, 3-amino-N-[2-(3-chlorophenoxy)ethyl]-1-{[6-(4-methylpyrazol-1-yl)pyridin-3-yl]methyl}pyrazole-4-carboxamide] are 3.35 µM, greater than 40 µM and 33%.
With `O=C(NCCOc1cccc(Cl)c1)c1cn(Cc2ccc(Cn3ccccc3=O)cc2)nc1C1CC1` [Example 5, N-[2-(3-chlorophenoxy)ethyl]-3-cyclopropyl-1-({4-[(2-oxopyridin-1-yl)methyl]phenyl}methyl)pyrazole-4-carboxamide], the concentration for half-maximal inhibition (IC50) on Human plasma kallikrein was 0.0684 µM; on Human KLK1 it was greater than 10 µM. In addition, the inhibition at 40 µM on Human FXIa (setting [1]) was found to be 0%.
Regarding `Nc1nn(Cc2ccc(COc3ncccn3)cc2)cc1C(=O)NCCOc1cccc(Cl)c1` [Example 75, 3-amino-N-[2-(3-chlorophenoxy)ethyl]-1-({4-[(pyrimidin-2-yloxy)methyl]phenyl}methyl)pyrazole-4-carboxamide], the IC50 on Human plasma kallikrein was 3.67 µM; against Human KLK1, greater than 40 µM. The inhibition at 40 µM on Human FXIa (setting [1]) turned out to be 0%.
On the same counts, the results for `Nc1nn(Cc2ccc(Cn3ccccc3=O)cc2)cc1C(=O)N[C@@H]1CCN(c2cccc(Cl)c2)C1` [Example 106, 3-amino-N-[(3R)-1-(3-chlorophenyl)pyrrolidin-3-yl]-1-({4-[(2-oxopyridin-1-yl)methyl]phenyl}methyl)pyrazole-4-carboxamide] are 0.684 µM, greater than 40 µM and 4%.
For `Nc1nn(Cc2cccc(-c3ccccc3)n2)cc1C(=O)NCCOc1cccc(Cl)c1` [Example 72, 3-amino-N-[2-(3-chlorophenoxy)ethyl]-1-[(6-phenylpyridin-2-yl)methyl]pyrazole-4-carboxamide], the half-maximal inhibitory concentration (IC50) on Human plasma kallikrein was 5.94 µM; on Human KLK1 it was greater than 40 µM. In addition, the inhibition at 40 µM on Human FXIa (setting [1]) is 26%.
Turning to `Nc1nn(Cc2ccc(Cn3ccccc3=O)cc2)cc1C(=O)NCCOc1cc(Cl)ccc1Cl` [Example 34, 3-amino-N-[2-(2,5-dichlorophenoxy)ethyl]-1-({4-[(2-oxopyridin-1-yl)methyl]phenyl}methyl)pyrazole-4-carboxamide], the figures for the IC50 at Human plasma kallikrein and against Human KLK1 were 0.0928 µM and greater than 40 µM, respectively. The inhibition at 40 µM at Human FXIa (setting [1]) was 7%.
Taken in the same sequence, the figures for `COCc1nn(Cc2ccc(Cn3ccccc3=O)cc2)cc1C(=O)NCCOc1ccccc1Cl` [Example 6, N-[2-(2-chlorophenoxy)ethyl]-3-(methoxymethyl)-1-({4-[(2-oxopyridin-1-yl)methyl]phenyl}methyl)pyrazole-4-carboxamide] were 1.89 µM, greater than 10 µM and 0%.
`Nc1c(C(=O)NCCOc2cccc(Cl)c2)cnn1Cc1ccc(Cn2ccccc2=O)cc1` [Example 17, 5-amino-N-[2-(3-chlorophenoxy)ethyl]-1-({4-[(2-oxopyridin-1-yl)methyl]phenyl}methyl)pyrazole-4-carboxamide]: the values for the IC50 at Human plasma kallikrein and against Human KLK1 were 0.096 µM and greater than 10 µM, respectively. Also, the inhibition at 40 µM at Human FXIa (setting [1]) was found to be 2%.
